Data set [1] can be described thus: Photo stability of compound assessed as release of 2,4-difluoro-N-(2-methoxy-5-(4-methyl-8-(tetrahydro-2H-pyran-4-yloxy)quinazolin-6-yl)pyridin-3-yl)benzenesulfonamide by measuring half life irradiated with 365 nm of UV for 5 min measured by HPLC analysis. The format is physicochemical.
In data set [2] the target is Phosphatidylinositol 4,5-bisphosphate 3-kinase catalytic subunit alpha isoform (Homo sapiens, UniProt P42336). The experiment in a line: Inhibition of PI3K alpha (unknown origin) using PIP2 as substrate incubated in dark at room temperature for 1 hr in presence of ATP by ADP-Glo luminescent assay.
Data set [3] addresses Phosphatidylinositol 4,5-bisphosphate 3-kinase catalytic subunit gamma isoform (Homo sapiens, UniProt P48736). The experiment in a line: Inhibition of PI3K gamma (unknown origin) using PIP2 as substrate incubated in dark at room temperature for 1 hr in presence of ATP by ADP-Glo luminescent assay. A general note: ADP-Glo first removes unused ATP, then detects ADP through luciferase.

Data set [4] has as its target Phosphatidylinositol 4,5-bisphosphate 3-kinase catalytic subunit beta isoform (Homo sapiens, UniProt P42338). The experiment in a line: Inhibition of PI3K beta (unknown origin) using PIP2 as substrate incubated in dark at room temperature for 1 hr in presence of ATP by ADP-Glo luminescent assay.
The species named for data set [5] is Homo sapiens. Put plainly: Anticancer activity against KOES-007 patient derived stomach cancer organoid assessed as inhibition of cell growth irradiated with 365 nm of UV light for 5 mins and incubated for 120 hrs. The format is functional, tissue-based.

Phosphatidylinositol 4,5-bisphosphate 3-kinase catalytic subunit gamma isoform, sequence (P48736 whole entry, canonical isoform): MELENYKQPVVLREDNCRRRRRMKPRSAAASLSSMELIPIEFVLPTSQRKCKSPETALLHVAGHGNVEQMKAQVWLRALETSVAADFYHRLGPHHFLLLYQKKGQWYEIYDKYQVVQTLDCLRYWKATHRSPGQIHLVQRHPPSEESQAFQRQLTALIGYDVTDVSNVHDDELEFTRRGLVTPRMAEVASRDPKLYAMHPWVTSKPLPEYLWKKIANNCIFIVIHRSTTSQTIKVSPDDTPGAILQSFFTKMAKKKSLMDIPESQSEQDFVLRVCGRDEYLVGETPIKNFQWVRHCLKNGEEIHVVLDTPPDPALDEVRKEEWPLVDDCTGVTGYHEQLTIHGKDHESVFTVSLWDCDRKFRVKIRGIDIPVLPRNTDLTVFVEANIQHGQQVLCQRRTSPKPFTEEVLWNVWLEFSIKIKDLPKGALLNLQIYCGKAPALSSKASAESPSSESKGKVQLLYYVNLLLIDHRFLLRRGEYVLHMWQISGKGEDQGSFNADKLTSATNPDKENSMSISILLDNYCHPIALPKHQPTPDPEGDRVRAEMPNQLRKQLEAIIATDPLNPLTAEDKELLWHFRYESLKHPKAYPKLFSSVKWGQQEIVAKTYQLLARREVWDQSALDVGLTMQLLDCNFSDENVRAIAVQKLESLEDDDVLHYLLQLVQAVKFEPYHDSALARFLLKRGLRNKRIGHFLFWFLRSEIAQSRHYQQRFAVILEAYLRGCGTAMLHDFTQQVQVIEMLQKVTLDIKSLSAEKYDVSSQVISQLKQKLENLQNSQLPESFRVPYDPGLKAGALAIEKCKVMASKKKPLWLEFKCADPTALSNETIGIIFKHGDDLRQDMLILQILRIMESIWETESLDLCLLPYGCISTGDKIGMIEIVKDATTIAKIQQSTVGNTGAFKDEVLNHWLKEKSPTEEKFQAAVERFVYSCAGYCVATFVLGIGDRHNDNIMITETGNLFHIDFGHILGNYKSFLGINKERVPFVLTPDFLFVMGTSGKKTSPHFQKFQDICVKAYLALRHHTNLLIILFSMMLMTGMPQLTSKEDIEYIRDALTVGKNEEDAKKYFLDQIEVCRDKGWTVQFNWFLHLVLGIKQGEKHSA
Phosphatidylinositol 4,5-bisphosphate 3-kinase catalytic subunit beta isoform, sequence (P42338 whole entry, canonical isoform): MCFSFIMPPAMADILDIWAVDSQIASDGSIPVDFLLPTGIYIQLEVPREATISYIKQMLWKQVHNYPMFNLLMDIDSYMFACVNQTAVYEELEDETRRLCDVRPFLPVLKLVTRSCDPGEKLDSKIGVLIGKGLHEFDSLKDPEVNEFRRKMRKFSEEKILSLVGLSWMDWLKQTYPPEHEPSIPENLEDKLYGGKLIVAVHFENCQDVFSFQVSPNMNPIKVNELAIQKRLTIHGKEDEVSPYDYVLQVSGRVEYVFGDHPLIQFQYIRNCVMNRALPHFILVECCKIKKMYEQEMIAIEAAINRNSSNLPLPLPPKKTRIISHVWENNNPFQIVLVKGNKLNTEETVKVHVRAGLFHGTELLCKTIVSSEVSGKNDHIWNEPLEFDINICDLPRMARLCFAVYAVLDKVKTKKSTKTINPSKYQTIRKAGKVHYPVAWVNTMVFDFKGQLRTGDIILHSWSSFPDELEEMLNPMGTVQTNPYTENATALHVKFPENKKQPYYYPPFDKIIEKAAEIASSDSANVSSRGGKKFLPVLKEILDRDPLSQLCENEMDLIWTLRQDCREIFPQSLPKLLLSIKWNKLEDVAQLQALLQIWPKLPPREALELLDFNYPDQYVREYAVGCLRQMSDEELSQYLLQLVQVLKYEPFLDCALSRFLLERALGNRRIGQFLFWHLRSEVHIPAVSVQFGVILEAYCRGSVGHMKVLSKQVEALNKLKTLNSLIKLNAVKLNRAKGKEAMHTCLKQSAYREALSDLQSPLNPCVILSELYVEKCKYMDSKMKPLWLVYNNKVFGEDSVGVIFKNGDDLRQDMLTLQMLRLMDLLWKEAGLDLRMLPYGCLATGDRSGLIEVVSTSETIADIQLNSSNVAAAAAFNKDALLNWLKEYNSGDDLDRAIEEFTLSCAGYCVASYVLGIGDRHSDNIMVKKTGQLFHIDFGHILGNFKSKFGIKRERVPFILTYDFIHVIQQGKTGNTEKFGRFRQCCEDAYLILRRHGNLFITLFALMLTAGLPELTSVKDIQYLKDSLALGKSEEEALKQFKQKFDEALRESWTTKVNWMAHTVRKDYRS
Phosphatidylinositol 4,5-bisphosphate 3-kinase catalytic subunit alpha isoform, sequence (P42336 whole entry, canonical isoform): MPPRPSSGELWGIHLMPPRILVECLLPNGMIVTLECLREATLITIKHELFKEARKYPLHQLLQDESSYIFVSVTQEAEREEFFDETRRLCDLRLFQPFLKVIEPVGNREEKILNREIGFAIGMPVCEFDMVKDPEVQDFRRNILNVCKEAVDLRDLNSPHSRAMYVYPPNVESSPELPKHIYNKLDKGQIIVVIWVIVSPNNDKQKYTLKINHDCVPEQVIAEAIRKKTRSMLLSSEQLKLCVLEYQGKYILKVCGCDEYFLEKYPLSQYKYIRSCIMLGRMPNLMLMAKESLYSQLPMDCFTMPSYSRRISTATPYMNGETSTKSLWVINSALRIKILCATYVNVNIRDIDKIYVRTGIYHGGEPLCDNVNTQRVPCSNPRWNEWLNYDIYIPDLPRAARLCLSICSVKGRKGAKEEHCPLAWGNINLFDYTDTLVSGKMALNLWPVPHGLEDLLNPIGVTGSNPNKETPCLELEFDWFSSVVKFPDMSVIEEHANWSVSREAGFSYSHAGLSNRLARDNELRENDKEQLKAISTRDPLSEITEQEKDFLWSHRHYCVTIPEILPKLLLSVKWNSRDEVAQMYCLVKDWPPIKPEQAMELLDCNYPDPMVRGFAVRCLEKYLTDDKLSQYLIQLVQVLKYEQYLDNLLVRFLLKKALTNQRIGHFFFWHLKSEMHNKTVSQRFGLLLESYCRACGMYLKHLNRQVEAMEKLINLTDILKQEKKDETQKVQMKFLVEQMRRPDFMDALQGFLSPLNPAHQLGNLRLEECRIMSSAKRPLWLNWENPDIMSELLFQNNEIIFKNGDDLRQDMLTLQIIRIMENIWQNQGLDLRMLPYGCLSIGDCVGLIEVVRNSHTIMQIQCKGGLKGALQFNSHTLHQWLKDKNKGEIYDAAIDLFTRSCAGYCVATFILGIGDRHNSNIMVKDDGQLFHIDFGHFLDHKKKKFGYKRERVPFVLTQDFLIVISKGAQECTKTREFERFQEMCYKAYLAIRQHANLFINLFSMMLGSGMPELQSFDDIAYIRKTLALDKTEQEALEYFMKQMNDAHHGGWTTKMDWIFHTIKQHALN

Usually IC50 stands for the point on the concentration scale where inhibition reaches its midpoint. For the compound `COc1cc(CN(c2cc(-c3cc(OC4CCOCC4)c4ncnc(C)c4c3)cnc2OC)S(=O)(=O)c2ccc(F)cc2F)c([N+](=O)[O-])cc1OC`, in data set [1], the t1/2 is given as 5 min. For the same compound, the figures for the IC50 in data set [2], in data set [3] and in data set [4] were 343 nM, 4.47 µM and 838 nM, respectively. In addition, in data set [5], the Activity result is “Dose-Dependent Effect”.

The record behind these values is ChEMBL document CHEMBL5042472, “Design, Synthesis, and Biological Evaluation of a Novel Photocaged PI3K Inhibitor toward Precise Cancer Treatment” (J Med Chem, 2021).
